Assays:
Format in all cases: in vivo
Rhizoctonia solani = test: Rice sheath blight control on sprayed rice seedlings (Example 87); conditions: Rhizoctonia solani, 168 h, 100 ppm spray, day before inoculation
Procedure: The compounds of the previous examples were again dissolved in acetone in an amount equal to 6% of the final volume and then suspended at a concentration of 100 ppm in purified water containing 250 ppm of the surfactant TREM 014 (polyhydric alcohol esters). This suspension was sprayed to the point of run-off on rice seedlings. The following day, the plants were inoculated with a mixture of bran and the mycelium of Rhizoctonia solani, causal agent of sheath blight of rice, and incubated in a growth room for 7 days. Disease ratings were then made. Treated plants from successful treatments had little sheath blight in contrast to untreated plants which were covered with sheath blight.

Phytophthora infestans = test: whole plant or invertebrate; conditions: Phytophthora infestans, in Solanum lycopersicum, 168 h, read-out: % Control of Tomato Late Blight, 100 ppm spray, day before inoculation
Erysiphe cichoracearum = test: Cucumber powdery mildew control on sprayed cucumber seedlings (Example 80); conditions: Golovinomyces cichoracearum, 168 h, 100 ppm spray, day before inoculation
Procedure: (§1) These suspensions were sprayed to the point of run-off, on cucumber seedlings. The following day, the plants were inoculated with a spore suspension of the fungus Erysiphe cichoracearum, causal agent of cucumber powdery mildew, and incubated in a growth room for 7 days. Disease ratings were then made. Treated plants from successful treatments had little or no powdery mildew in contrast to untreated plants which were covered with powdery mildew. Phytotoxicity in the form of growth reduction or hormonal effects was observed on some of the plants in association with disease control.

Helminthosporium maydis = test: Southern corn leaf blight control on sprayed corn seedlings (Example 83); conditions: Bipolaris maydis, 192 h, 100 ppm spray, day before inoculation
Procedure: The compounds of the previous examples were again dissolved in acetone in an amount equal to 6% of the final volume and then suspended at a concentration of 100 ppm in purified water containing 250 ppm of the surfactant TREM 014 (polyhydric alcohol esters). These suspensions were sprayed to the point of run-off on corn seedlings. The following day, the plants were inoculated with a spore suspension of Helminthosporium maydis, causal agent of southern corn leaf blight, and incubated in a saturated humidity chamber at 20° for 24 hours and then in a growth room for an additional 7 days, when disease ratings were made. Treated plants from successful treatments had few or no lesions while the untreated plants had numerous lesions on each leaf. Phytotoxicity expressed as growth reduction was observed on some of the plants in association with disease control.

cucumber seedlings = test: Phytotoxicity on cucumber seedlings (Example 80); set-up: key: G = growth reduction; H = hormonal effects; conditions: 100 ppm spray
Procedure: as §1, with “The compounds of the previous example were again dissolved in acetone in an amount equal to 6% of the final volume and then suspended at a concentration of 100 ppm in purified water containing 250 ppm of the surfactant TREM 014 (polyhydric alcohol esters). These” for “These”

Venturia inaequalis = test: Apple scab control on sprayed apple seedlings (Example 82); conditions: Venturia inaequalis, 100 ppm spray, day before inoculation
Procedure: These suspensions were sprayed to the point of run-off on apple seedlings. The following day, the plants were inoculated with a spore suspension of the fungus Venturia inaequalis, causal agent of apple scab, and incubated in a saturated humidity chamber at 20° for 24 hours and then in a growth room for an additional 10-12 days. Treated plants from successful treatments had fewer apple scab lesions when compared to untreated plants which were covered with scab lesions. Phytotoxicity expressed as growth reduction was observed on some of the plants in association with disease control.

Pyricularia oryzae = test: whole plant or invertebrate; conditions: Pyricularia oryzae, 168 h, read-out: % Control of Rice Blast, 100 ppm spray, day before inoculation
Cercospora arachidicola = test: Peanut early leafspot control on sprayed peanut seedlings (Example 84); conditions: Mycosphaerella arachidis, 360 h, 100 ppm spray, day before inoculation; read-out: % Control Peanut Easly Leafspot
Procedure: These suspensions were sprayed to the point of run-off on peanut seedlings. The following day, the plants were inoculated with a spore suspension of Cercospora arachidicola, causal agent of peanut early leafspot, and incubated in a saturated humidity chamber at 27° for 24 hours and then in a growth room for an additional 14 days, when disease ratings were made. Treated plants from successful treatments had few or no leafspots while the untreated plants had numerous leafspots.

[1] = test system: Puccinia recondita var. tritici; test: Wheat leaf rust control on sprayed wheat seedlings (Example 79); conditions: Puccinia recondita, 168 h; 100 ppm spray, day before inoculation
Procedure: The compounds of this invention were dissolved in acetone in an amount equal to 6% of the final volume and then suspended at a concentration of 100 ppm in purified water containing 250 ppm of the surfactant TREM 014 (polyhydric alcohol esters). These suspensions were sprayed to the point of run-off on wheat seedlings. The following day, the plants were inoculated with a spore suspension of Puccinia recondita var. tritici, causal agent of wheat leaf rust, and incubated in a saturated humidity chamber at 20° for 24 hours and then in a growth room for an additional 7 days, when disease ratings were made. Treated plants from successful treatments had few or no rust pustules while the untreated plants had numerous rust pustules on each leaf.

Compound	pest or weed control at 100 ppm (Rhizoctonia solani) [%]	pest or weed control at 100 ppm (Phytophthora infestans) [%]	pest or weed control at 100 ppm (Erysiphe cichoracearum) [%]	pest or weed control at 100 ppm (Helminthosporium maydis) [%]	Phytotoxicity on cucumber (cucumber seedlings)	pest or weed control at 100 ppm (Venturia inaequalis) [%]	pest or weed control at 100 ppm (Pyricularia oryzae) [%]	pest or weed control at 100 ppm (Cercospora arachidicola) [%]	pest or weed control at 100 ppm [1] [%]
COc1cccc([Si](C)(C)Cn2cncn2)c1OC [(2,3-Dimethoxyphenyl)dimethyl(1H-1,2,4-triazol-1-ylmethyl)silane]	0	0	100	0	G	0	0	0	0
COc1cccc(OC)c1[Si](C)(C)Cn1cncn1 [(2,6-Dimethoxyphenyl)dimethyl(1H-1,2,4-triazol-1-ylmethyl)silane]	0	0	100	0	G	0	0	0	0
C[Si](C)(Cn1cncn1)c1ccccc1Cl [(2-Chlorophenyl)dimethyl(1H-1,2,4-triazol-1-ylmethyl)silane]	0	0			G		100		0
COc1ccccc1[Si](C)(C)Cn1cncn1 [(2-Methoxyphenyl)dimethyl(1H-1,2,4-triazol-1-ylmethyl)silane]	0	0	100	70	G	80	0	0	0
C[Si](C)(Cn1cncn1)C1CCCCC1 [Cyclohexyl(dimethyl)(1H-1,2,4-triazol-1-ylmethyl)silane]	0	0	100	50	G	0		0	0
C[Si](C)(Cn1cncn1)c1ccc(C(F)(F)F)cc1 [Dimethyl(1H-1,2,4-triazol-1-ylmethyl)(4-trifluoromethylphenyl)silane]	0	0	100	50	G	0	0	0	0
C[Si](C)(Cn1cncn1)c1ccc(OC(F)(F)F)cc1 [Dimethyl(4-trifluoromethoxyphenyl)(1H-1,2,4-triazol-1-ylmethyl)silane]	0	0	100	80	G	90	0	50	100

— US4510136A (priority 1983, dated 1985)
